Measurements taken from patent US20090258836A1, “EFFECTIVE DELIVERY OF CROSS-SPECIES A3 ADENOSINE-RECEPTOR ANTAGONISTS TO REDUCE INTRAOCULAR PRESSURE” (The Trustees of The University of Pennsylvania, priority 2006, published 2009).
“Also recorded” adds a separate entry of the source.

Key:
[1] = molecular target: T1, recombinant human A2B receptors (Homo sapiens, UniProt P29275); assay: Radioligand binding to recombinant human A2B receptors; details: 10 μM
T1 sequence (P29275 1-332): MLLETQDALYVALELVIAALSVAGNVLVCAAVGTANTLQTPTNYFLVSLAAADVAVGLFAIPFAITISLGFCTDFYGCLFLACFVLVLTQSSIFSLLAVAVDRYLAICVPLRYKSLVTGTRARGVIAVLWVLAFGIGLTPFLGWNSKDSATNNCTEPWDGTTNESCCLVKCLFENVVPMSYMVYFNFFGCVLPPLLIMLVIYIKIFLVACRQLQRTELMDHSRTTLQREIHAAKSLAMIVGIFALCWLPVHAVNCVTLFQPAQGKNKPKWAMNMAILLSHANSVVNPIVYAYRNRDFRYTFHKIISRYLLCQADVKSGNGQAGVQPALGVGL

[2] = test system: cultured human NPE cells; details: 10 μM adenosine; cited from earlier work
[3] = test system: IOP of A3 subtype adenosine receptor (A3AR)-null mice; details: published reports; cited from earlier work
[4] = test system: HCE (human ciliary epithelial) cell line, NPE cells; assay: Cell volume in isosmotic solution (isosmotic shrinkage), Coulter Counter; type: cell-based
Summary of the method: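 Immortalized human NPE (HCE) cells, 8-13 days post-passage at confluence, suspended in isosmotic solution with test agents or matched vehicle. Volume measured by Coulter Counter as peak of distribution, normalized to first time point; shrinkage fit to monoexponential by nonlinear least squares for steady-state volume and time constant.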

[5] = test system: mouse IOP; assay: Mouse IOP after topical application, non-invasive pneumotonometry; type: in vivo, Black Swiss mice
Summary of the method: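 Black Swiss outbred mice (7-9 weeks, mixed sex) under intraperitoneal ketamine plus topical proparacaine 0.5%. Drugs applied topically as […] droplets three times, containing <2% DMSO and 0.0005% benzalkonium chloride; IOP measured non-invasively by pneumotonometry at 10-min intervals from a stereotactically fixed probe position.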

- displacement of radioligand binding [1]: did not displace radioligand binding
SMILES: CCOC(=O)C1=C(C)NC(c2ccccc2)=C(C(=O)OCc2ccccc2)C1C#Cc1ccccc1 (racemic) [MRS-1191, 3-ethyl 5-benzyl-2-methyl-6-phenyl-4-phenylethynyl-1,4-(±)-dihydropyridine-3,5-dicarboxylate]
- effect of antagonist on adenosine-treated cells [2]: displayed no exponential shrinkage
- response of IOP of A3AR-null mice [3]: unresponsive
- effect of A3 antagonist on IB-MECA-triggered isosmotic shrinkage of NPE cells ([4]; 100 nM IB-MECA, 2 min preincubation with 300 nM MRS-1097 or 100 nM MRS-1191): prevented characteristic shrinkage; also recorded: prevented the shrinkage
- effect on cell volume in the absence of IB-MECA ([4]; 100 nM MRS-1191): did not affect cell volume
- effect of A3 antagonist on isosmotic shrinkage triggered by CGS-21680 ([4]; 3 μM CGS-21680, preincubation with 100 nM MRS-1191): abolished this effect; also recorded: blocked; also recorded: prevented the shrinkage
- effect of A3 antagonist on adenosine-stimulated isotonic shrinkage of NPE cells ([4]; 10 μM adenosine, 2 min preincubation with 300 nM MRS-1097, 100 nM MRS-1191 or 100 nM MRS-1523): prevented the characteristic shrinkage; also recorded: blocked the shrinkage
- time of maximum decrease in IOP observed pneumotonometrically ([5]; after the initial application, end of the experiments): 30 min
- time to begin lowering mouse IOP significantly, non-invasive ([5]; after topical application): 30 min
